In US6544971B1, “Method of increasing alertness by administration of a vomeropherin, and vomeropherin-emitting alarm devices” (Pherin Pharmaceuticals, Inc., priority 2000, dated 2003):

How the values were obtained:
Assay type in all cases: in vivo
Human Subjects [1] = experiment: Subjective in-session self-evaluation at half-hour intervals (questionnaire and 3 item analog sleepiness scale); conditions: for Self-Perception of Sleepiness, score on sleepiness scale inventory: scale 0 to 10, higher numbers more sleepiness
Protocol: Immediately prior to “lights out”, subjects were asked to lie in a supine position. The MVA was positioned in the right nostril, with its nozzle directed toward the right VNO opening. Later, the MVA was positioned in the left nostril for stimulation of the left VNO. Two pulses of air or the test compound or placebo were administered to each VNO. The same procedure was repeated 30 minutes later, at which times the investigator would enter the room and wake the subject if they were asleep, so that the total dose of the vomeropherin being administered to each subject was 800 pg.
At each 30 minute sleep interruption, prior to the test compound application, each subject was given a short questionnaire to record their perception of whether they were asleep, estimated time spent awake, and number of awakenings. In addition, sleepiness was measured by a 3 item analog scale inventory (scored from 0 to 10, higher numbers indicating more sleepiness) that included: a) readiness to get back to sleep; b) degree of anxiety and c) self rated level of sleepiness. […] Recordings began at 10:00 p.m. and lasted until 6:00 a.m. of the following day. Frontal, parietal and occipital electroencephalograms (EEG), electrooculograms, and electromyograms were recorded during the first hour. These recordings were coded and scored blind for non-rapid eye movement sleep latency from “lights out” to the appearance of the first minute of Stage 1 sleep, total wake time, wake time after sleep onset, and total sleep time. Sleep stages were assigned according to the criteria of Rechtschaffen and Kales (1968). All variables were scored separately for each 30-minute interval. Number of awakenings was tallied for the entire hour of recording.

Human Subjects [2] = experiment: Sleep study by polysomnography (PSG) after VNO stimulation, randomized single-blind placebo-controlled; conditions: for Overall effect on sleep and arousal: conclusion from PSG and self-reports
Protocol: Three methods were used to assess sleep: 1) sleep study, 2) quantitative electroencephalography, and 3) psychometric tests. The study was carried out using a randomized, single-blind, placebo-controlled experimental design.
Screening was performed several days prior to the study session via clinical interviews and examination. Additionally, Hamilton A and D, and Covy tests were administered to determine concomitant anxiety or affective disorders. A thorough questionnaire regarding sleep habits and sleep pathologies was also administered to each subject. Criteria for inclusion in the study included subjects with a score of 12 or less on the Covy test and a score of 8 or less on the Hamilton A and Hamilton D tests, and absence of any medical or psychiatric conditions. Ten physically and mentally healthy young male adult subjects were selected for the study. All of them Were normal sleepers (i.e., they reported no difficulty in falling or remaining asleep at night, slept between 6 and 8.5 hours per night, and were alert during the daytime).
On the day of the study, they were instructed to refrain from napping, to avoid consuming alcohol or caffeine containing beverages, and to maintain a uniform daily level of activity. The ten subjects were divided into two groups of five, with the test compound being administered to one group and the other acting as a control.
The test compound was administered to the VNO using a manual vomeronasal applicator (MVA). This applicator comprises an air supply, delivering a 1 ml pulse of air; a valve system passing that pulse of air either through a chamber containing 30 mg of USP cotton that has been previously soaked with 1 ml of a 1 mg/ml solution of the test compound, estra-1,3,5(10),16-tetraen-3-yl acetate, in ethanol and allowed to dry overnight, or bypassing that chamber; a one-way flow valve; and a nozzle capable of being positioned in a nostril to provide direct administration to the lumen of the VNO. With a 1 ml air pulse, the MVA delivers 200 pg of the test compound to the VNO.
During the study, subjects spent one night in the sleep laboratory and underwent conventional polysomnography (PSG) only, during the first hour. The criteria for this short recording was based on previous findings showing that single dose VNO stimulation with the vomeropherins induced effects within one hour after stimulation. Before starting the recordings, each subject was questioned regarding distressing or extenuating events during that day that could contribute to sleep disruption. Times of last meal and physical exercise (if applicable) were also recorded. In order to determine whether the compound would affect daytime activities, or anterograde memory, judgment and motor skills were also evaluated both before going to sleep and in the morning. For this purpose, subjects were administered a maze test, a digit-symbol substitution test, a right and left manual coordination test (dot test), and a number repetition test as described in a previous publication (Monti, J. M., 1989, Slow Wave Sleep in Health and Disease. In: Waukier A., Dugovic C. and Radulovacki M. “Slow Wave Sleep.” New York, Raven Press. pp. […]).
Immediately prior to “lights out”, subjects were asked to lie in a supine position. The MVA was positioned in the right nostril, with its nozzle directed toward the right VNO opening. Later, the MVA was positioned in the left nostril for stimulation of the left VNO. […]

Human Subjects [3] = experiment: Cognitive and motor performance tests before sleep and in the morning (maze, digit-symbol substitution, dot test, number repetition); conditions: night versus morning tests
From the text: During the study, subjects spent one night in the sleep laboratory and underwent conventional polysomnography (PSG) only, during the first hour. The criteria for this short recording was based on previous findings showing that single dose VNO stimulation with the vomeropherins induced effects within one hour after stimulation. Before starting the recordings, each subject was questioned regarding distressing or extenuating events during that day that could contribute to sleep disruption. Times of last meal and physical exercise (if applicable) were also recorded. In order to determine whether the compound would affect daytime activities, or anterograde memory, judgment and motor skills were also evaluated both before going to sleep and in the morning. […]
In the morning, all subjects completed a multiple-choice questionnaire regarding the following variables: sleep latency after last entry, estimated time sleeping, number of awakenings, and quality of sleep. General status at waking time was determined by marking on a 9 item analog scale inventory. […]

Human Subjects [4] = experiment: Morning multiple-choice questionnaire and analog scale (sleep latency, duration, quality, status at waking)
Protocol: In the morning, all subjects completed a multiple-choice questionnaire regarding the following variables: sleep latency after last entry, estimated time sleeping, number of awakenings, and quality of sleep. General status at waking time was determined by marking on a 9 item analog scale inventory. In addition, all subjects were administered cognitive and motor performance tests identical to those received before bedtime.

[5] = morning questionnaire, latency after last entry, 5 subjects per group
[6] = morning questionnaire, 5 subjects per group

`CC(=O)Oc1ccc2c(c1)CC[C@@H]1[C@@H]2CC[C@]2(C)C=CC[C@@H]12` [Test Compound, estra-1,3,5(10),16-tetraen-3-yl acetate] was tested, and the “Self-Perception of Sleepiness, score on sleepiness scale inventory” value (Human Subjects [1]; First entry (beginning study), placebo 7.5) was 6.0, the “Self-Perception of Sleepiness, score on sleepiness scale inventory” value (Human Subjects [1]; Second entry (60 min. int), after dosing, placebo 8.9) was 3.2 and the “Self-reported number of awakenings” value (Human Subjects [1]; self-evaluation at half-hour intervals, control group none to more than three) was “three or more”. The “Effect on subject's self-perception of sleep” value (Human Subjects [1]; self-reports compared with PSG data) was “does not impair a subject's self-perception of sleep”, the “Overall effect on sleep and arousal” value (Human Subjects [2]) was “possible psychostimulant effect” and the “Overall effect on sleep and arousal” value (Human Subjects [2]; listed as estra-1,3,5(10),16-tetraen-3-yl acetate) was “primary arousing effect”. For the same compound, the “Sleep Onset Latency (SOL), Mean” value (Human Subjects [2]; healthy young male adults, 5 per group, test compound to VNO by MVA, total 800 pg, first hour PSG, control group 16) was 21 min, the “Wake Time after Sleep Onset, Mean” value (Human Subjects [2]; healthy young male adults, 5 per group, test compound to VNO by MVA, total 800 pg, first hour PSG, control group 17.7) was 16.3 min and the “Total Sleep Time (TST), Mean” value (Human Subjects [2]; healthy young male adults, 5 per group, test compound to VNO by MVA, total 800 pg, first hour PSG, control group 26.0) was 14.3 min. For the same compound, the “Change in scores for anterograde memory, judgment or motor dexterity” value (Human Subjects [3]) was “Neither the control nor the test group revealed any changes in scores”, the “Sleep quality (disturbed or undisturbed)” value (Human Subjects [4]; classified by subjects in the morning) was “one subject in the test group defined their sleep as “disturbed”” and the “Sleep Latencies <30 Minutes, number of subjects” value (Human Subjects [4]; [5]) was 0 n. For the same compound, the “Sleep Latencies >30 minutes, number of subjects” value (Human Subjects [4]; [5]) was 5 n, the “Sleep Duration 4-6 hours, number of subjects” value (Human Subjects [4]; [6]) was 5 and the “Sleep Duration 7-8 hours, number of subjects” value (Human Subjects [4]; [6]) was 0. For the same compound, the “Reported sleep latency after VNO stimulation” value (Human Subjects [4]; morning quiz, control group shorter than 30 minutes) was greater than 30 min and the “Condition at morning waking (index and visual analog scale)” value (Human Subjects [4]; versus placebo) was “did not show any difference”.
